Assay results from article doi:10.1101/2022.04.02.486831v1 (biorxiv, 2022).

Target: T1, PsmtLPD1 (mtLPD1; PsL) (Lathyrus oleraceus, UniProt P31023)
T1 sequence (P31023 32-501): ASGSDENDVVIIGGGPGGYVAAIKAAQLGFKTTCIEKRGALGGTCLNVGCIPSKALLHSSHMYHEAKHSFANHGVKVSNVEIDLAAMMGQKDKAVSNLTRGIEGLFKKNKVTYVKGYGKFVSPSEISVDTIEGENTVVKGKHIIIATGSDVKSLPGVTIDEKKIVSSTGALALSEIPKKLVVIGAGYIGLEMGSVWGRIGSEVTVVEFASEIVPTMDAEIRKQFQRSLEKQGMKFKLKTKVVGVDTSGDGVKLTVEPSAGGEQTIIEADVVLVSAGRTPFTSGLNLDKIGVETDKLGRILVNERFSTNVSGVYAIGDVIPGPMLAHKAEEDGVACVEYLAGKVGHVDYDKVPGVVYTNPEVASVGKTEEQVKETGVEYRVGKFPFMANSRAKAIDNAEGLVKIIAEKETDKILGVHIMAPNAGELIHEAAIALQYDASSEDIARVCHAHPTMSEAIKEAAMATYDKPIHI
Test: spectrophotometric at […] nm, forward direction
Format: biochemical

NC(=O)C1=CN([C@@H]2O[C@H](COP(=O)(O)OP(=O)(O)OC[C@H]3O[C@@H](n4cnc5c(N)ncnc54)[C@H](O)[C@@H]3O)[C@@H](O)[C@H]2O)C=CC1 [NADH]
Ki: ~66.1 µM
